Test: Cytotoxicity against human paclitaxel-resistant OVCA429 cells assessed as cell viability preincubated for 20 mins followed by wash and incubation in drug-free media for 72 hrs by MTT assay
Type: functional, cell-based

Compound: CC(=O)O[C@H]1C(=O)[C@@]2(C)[C@H]([C@H](OC(=O)c3ccccc3)[C@]3(O)C[C@H](OC(=O)[C@H](OC(=O)CCCSSCCCCCCOP(=O)(OCCCCCCNC(=N)N)OCCOP(=O)(OCCCCCCNC(=N)N)OCCOP(=O)(OCCCCCCNC(=N)N)OCCOP(=O)(OCCCCCCNC(=N)N)OCCOP(=O)(OCCCCCCNC(=N)N)OCCOP(=O)(OCCCCCCNC(=N)N)OCCOP(=O)(OCCCCCCNC(=N)N)OCCOP(=O)(OCCO)OCCCCCCNC(=N)N)[C@@H](NC(=O)c4ccccc4)c4ccccc4)C(C)=C1C3(C)C)[C@]1(OC(C)=O)CO[C@@H]1C[C@@H]2O (stereo partly specified)
- EC50: 1400 nM
